Measurements from article PMC9145865, “Effects of Rare Phytocannabinoids on the Endocannabinoid System of Human Keratinocytes” (International Journal of Molecular Sciences, 2022).
“Also recorded” adds a separate entry of the source.

Legend:
[1] = system: CB1; experiment: Western blot protein expression of CB1; type: cell-based, human; conditions: HaCaT cells, half-IC50 dose, 24 h, vs. control
Experimental: (§1) The HaCaT cells were seeded into 6-well plates at a density of 4 × 10^4 per well, incubated overnight and then treated with the selected pCBs (6.0 µM of CBG, 4.0 µM of CBC, 9.0 µM of THCV and 13.0 µM of CBGA) for 24 h. The cell pellets were collected and then lysed in an ice-cold lysis buffer (10 mM of EDTA, 50 mM of pH 7.4 Tris–HCl, 150 mM of sodium chloride, 1% Triton-X-100, 2 mM of phenylmethylsulfonyl fluoride, 2 mM of sodium orthovanadate, […] of leupeptin and […] of aprotinin). The amount of protein was determined using the Bio-Rad Protein assay (Bio-Rad Laboratories, Hemel Hempstead, UK). An equal amount of protein (60 µg) was loaded onto 10% sodium dodecyl sulfate–polyacrylamide gels and blotted onto polyvinylidene fluoride sheets (Amersham Biosciences, Piscataway, NJ, USA). The membranes were blocked with dried 5% non-fat milk for 1 h and then incubated with suitable primary antibodies. Detection was performed using Azure Biosystems c400 (Dublin, CA, USA). The membranes were stripped using the Restore Western Blot Stripping Buffer from Thermo Fisher Scientific (Waltham, MA, USA) for 30 min under agitation at room temperature, according to the manufacturer’s instructions. The primary antibodies (Table 6) that were used were obtained from the following sources: […]

[2] = system: FAAH; experiment: Western blot protein expression of FAAH; type: cell-based, human; conditions: HaCaT cells, half-IC50 dose, 24 h, vs. control
Experimental: as §1

[3] = system: DAGLα; experiment: Western blot protein expression of DAGLα; type: cell-based, human; conditions: HaCaT cells, half-IC50 dose, 24 h, vs. control
Experimental: as §1

[4] = system: MAGL; experiment: Western blot protein expression of MAGL; type: cell-based, human; conditions: HaCaT cells, half-IC50 dose, 24 h, vs. control
Experimental: as §1

[5] = system: CB1/2; experiment: Receptor binding assay on adherent living cells with [3H]CP 55,940; design: species or system human; conditions: HaCaT cells treated 24 h with half-IC50 amount; for total CB1/2 binding activity (in words): vs. control; for CB1/2 Binding Activity (pmol/mg of Protein): 2.5 nM [3H]CP 55,940, mean ± SEM, n = 3
Experimental: We also sought to investigate the effects of half-IC50 doses of pCBs on the functional activity of eCB-binding receptors (CB1/2 and TRPV1) and the AEA and 2-AG metabolizing enzymes (NAPE-PLD, FAAH, DAGLα/β and MAGL) when used to treat HaCaT cells for 24 h, for which an assay procedure was available. To this end, a CB1/2 ligand binding assay was performed using the radiolabeled synthetic cannabinoid [^3H]CP 55,940, which acts as a full agonist of both cannabinoid receptors with high and roughly equal affinity.
The HaCaT cells were seeded into 12-well plates at a density of 2 × 10^4 per well, incubated overnight and then treated with the selected pCBs (6.0 µM of CBG, 4.0 µM of CBC, 9.0 µM of THCV and 13.0 µM CBGA) for 24 h. Each well of the 12-well plates was washed twice with 1 mL of PBS and treated with 500 µL of incubation buffer (50 mM of Tris–HCl, 5 mM of MgCl2 and 1 mM of CaCl2; 0.2% BSA; pH 7.4), preheated to 37 °C and then incubated for 15 min at 37 °C. Then, 2.5 nM of [^3H]CP 55,940 was added and incubation occurred for 1 h in an incubator that was set at 37 °C. Afterward, the buffer was carefully removed and the cells were washed again with an ice-cold washing buffer (50 mM of Tris–HCl and 500 mM of NaCl; 0.1% BSA; pH 7.4). Unspecific binding was determined in the presence of 1 µM of synthetic agonist CP 55,940 [60]. Then, 500 µL of 0.5 M NaOH was added to each well and the cells were pipetted up and down several times in order to be lysed. The resuspension was then transferred to a 10-mL scintillation vial with a liquid scintillation cocktail and radioactivity was immediately read using a scintillation β-counter (Tri-Carb 2810 TR, Perkin Elmer, Waltham, MA, USA), as described in [40].

[6] = system: PPARγ; experiment: qRT-PCR gene expression of PPARγ; type: cell-based, human; conditions: HaCaT cells, half-IC50 dose, 24 h, vs. control
Experimental: (§2) The HaCaT cells were seeded into 6-well plates at a density of 4 × 10^4 per well, incubated overnight and then treated with the selected pCBs (CBG (6.0 µM), CBC (4.0 µM), THCV (9.0 µM) and CBGA (13.0 µM)) for 24 h. The cell pellets were collected and RT-PCR reactions were performed using the RevertAid H Minus First Strand cDNA Synthesis Kit. The relative abundance was assessed via RT quantitative PCR (RT-qPCR) using the SensiFAST SYBR Lo-ROX Kit in an Applied Biosystems 7500 Fast Real-Time PCR System (Life Technologies). To provide the precise quantification of the initial target in each PCR reaction, the amplification plot was examined, as well as the point of early log phase of the product accumulation, which was defined by assigning a fluorescence threshold above the background that was defined as the threshold cycle number or “Ct. Differences” in threshold cycle number that was used to quantify the relative amount of the PCR targets that were contained within each tube. After PCR, a dissociation curve (melting curve) was constructed in the range of 60 °C to 95 °C [62] to evaluate the specificity of the amplification products. The relative expression of the different amplicons was calculated using the delta–delta Ct (ΔΔCt) method and then converted into the relative expression ratio (2^−ΔΔCt) for statistical analysis. All data were normalized to the endogenous reference genes β-actin and glyceraldehyde-3-phosphate dehydrogenase. The specific primers (Table 5) that were used were designed and ordered from Integrated DNA Technologies (IDT; Coralville, IA, USA) with the following sequences: […]

[7] = system: CB1; experiment: qRT-PCR gene expression of CB1; type: cell-based, human; conditions: HaCaT cells, half-IC50 dose, 24 h, vs. control
Experimental: as §2

[8] = system: CB2; experiment: qRT-PCR gene expression of CB2; type: cell-based, human; conditions: HaCaT cells, half-IC50 dose, 24 h, vs. control
Experimental: as §2

Q: For CCCCCc1cc(O)c(C/C=C(\C)CCC=C(C)C)c(O)c1C(=O)O [CBGA, cannabigerolic acid], which “CB1 protein expression (in words)” value [1] is on record?
A: significantly reduced

Q: And the “Protein Expression CB1” value [1]?
A: ↓++++

Q: And the “FAAH protein expression (in words)” value [2]?
A: significantly increased

Q: And the “Protein Expression FAAH” value [2]?
A: NAPE-PLD ↑++++ FAAH ↑++++ DAGLα ↑++++ MAGL ↑++++

Q: What about the “DAGLα protein expression (in words)” value [3] of the same molecule?
A: increased

Q: What about the “Protein Expression DAGLα” value [3] of the same molecule?
A: NAPE-PLD ↑++++ FAAH ↑++++ DAGLα ↑++++ MAGL ↑++++

Q: And the “MAGL protein expression (in words)” value [4]?
A: increased

Q: What about the “Protein Expression MAGL” value [4] of the same molecule?
A: NAPE-PLD ↑++++ FAAH ↑++++ DAGLα ↑++++ MAGL ↑++++

Q: And the “total CB1/2 binding activity (in words)” value [5]?
A: significantly increased

Q: And the “CB1/2 Binding Activity (pmol/mg of Protein)” value [5]?
A: 8.373 ± 0.410 pmol/mg of Protein

Q: Which results are given for CCCc1cc(O)c2c(c1)OC(C)(C)[C@@H]1CCC(C)=C[C@@H]21 [THCV, Δ^9-tetrahydrocannabivarin]?
A: Gene Expression PPARγ [6]: ↓++++; gene expression of PPARγ (in words) [6]: significantly reduced; CB1 protein expression (in words) [1]: significantly reduced; Protein Expression CB1 [1]: ↓+; DAGLα protein expression (in words) [3]: increased; Protein Expression DAGLα [3]: ↑+++; MAGL protein expression (in words) [4]: increased; Protein Expression MAGL [4]: ↑++++; total CB1/2 binding activity (in words) [5]: significantly increased; CB1/2 Binding Activity (pmol/mg of Protein) [5]: 8.187 ± 0.302 pmol/mg of Protein

Q: For CCCCCc1cc(O)c2c(c1)OC(C)(CCC=C(C)C)C=C2 (stereo not shown) [CBC, cannabichromene], which “Gene Expression CB1” value [7] is on record?
A: ↓++++

Q: What about the “gene expression of CB1 (in words)” value [7] of the same molecule?
A: significantly downregulated

Q: And the “Gene Expression CB2” value [8]?
A: ↓++

Q: What about the “gene expression of CB2 (in words)” value [8] of the same molecule?
A: significantly downregulated

Q: What about the “Gene Expression PPARγ” value [6] of the same molecule?
A: ↓++

Q: What about the “gene expression of PPARγ (in words)” value [6] of the same molecule?
A: reduced

Q: And the “FAAH protein expression (in words)” value [2]?
A: significantly increased

Q: What about the “total CB1/2 binding activity (in words)” value [5] of the same molecule?
A: significantly increased

Q: What about the “CB1/2 Binding Activity (pmol/mg of Protein)” value [5] of the same molecule?
A: 10.380 ± 0.750 pmol/mg of Protein

Q: With CCCCCc1cc(O)c(C/C=C(\C)CCC=C(C)C)c(O)c1 [CBG, cannabigerol] as the molecule, how does the “Gene Expression CB1” value [7] read?
A: ↑++++

Q: What about the “gene expression of CB1 (in words)” value [7] of the same molecule?
A: significantly upregulate

Q: What about the “gene expression of CB2 (in words)” value [8] of the same molecule?
A: significantly upregulate

Q: What about the “total CB1/2 binding activity (in words)” value [5] of the same molecule?
A: significantly increased; also recorded: doubled

Q: What about the “CB1/2 Binding Activity (pmol/mg of Protein)” value [5] of the same molecule?
A: 8.027 ± 0.681 pmol/mg of Protein
